Measured values as given in ChEMBL document CHEMBL1201862, “PubChem BioAssay data set” (2004).
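Values below derive from 48-hour exposures of cells grown in 96-well plates, with endpoints linearly interpolated between the two concentrations bracketing the appropriate inhibition level. GI50 is the concentration that inhibits growth by half.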 Active and inactive are the calls of the source. No stated cut-off is given here; in the data, active = GI50 up to about 1.1 µM and inactive = higher.

What was measured:
Assay in all cases: inhibition of tumour cell growth, NCI panel, 48 h
K562 = tested on: K562
HL-60 = tested on: HL-60
UACC-257 = tested on: UACC-257
KM12 = tested on: KM12
SF-268 = tested on: SF-268
LOX IMVI = tested on: LOX IMVI
SNB-75 = tested on: SNB-75
HOP-62 = tested on: HOP-62
CCRF-CEM = tested on: CCRF-CEM
SK-OV-3 = tested on: SK-OV-3
HOP-92 = tested on: HOP-92
UACC-62 = tested on: UACC-62
SK-MEL-5 = tested on: SK-MEL-5
NCI-H23 = tested on: NCI-H23
Malme-3M = tested on: Malme-3M
COLO 205 = tested on: COLO 205
RPMI-8226 = tested on: RPMI-8226
MCF7 = tested on: MCF7
MDA-MB-435 = tested on: MDA-MB-435

Measured: GI50

Cc1cccc(NC(=O)C(=O)Cc2nc3ccccc3nc2O)c1C
inactive: K562 > 100 µM | HL-60 > 100 µM | UACC-257 > 100 µM | KM12 > 100 µM | SF-268 > 100 µM | LOX IMVI > 100 µM | SNB-75 84.9 µM | HOP-62 > 100 µM | CCRF-CEM > 100 µM | SK-OV-3 > 100 µM | HOP-92 > 100 µM | UACC-62 > 100 µM | SK-MEL-5 > 100 µM | NCI-H23 > 100 µM | Malme-3M > 100 µM | COLO 205 > 100 µM

O=C1CC2CC=C[C@H]3c4cc5c(cc4C(=O)N1C23)OCO5 (some centres undefined)
inactive: K562 > 50 µM | HL-60 > 50 µM | UACC-257 > 50 µM | KM12 > 50 µM | SF-268 > 50 µM | LOX IMVI > 50 µM | SNB-75 > 50 µM | HOP-62 > 50 µM | CCRF-CEM > 50 µM | SK-OV-3 > 50 µM | UACC-62 > 50 µM | RPMI-8226 > 50 µM | NCI-H23 > 50 µM | Malme-3M > 50 µM | COLO 205 > 50 µM

Cc1ccc(-c2c(C#N)c(O)n(NS(=O)(=O)c3ccccc3)c(=O)c2C#N)cc1
inactive: K562 > 100 µM | HL-60 > 100 µM | UACC-257 > 100 µM | MCF7 > 100 µM | KM12 > 100 µM | SF-268 > 100 µM | LOX IMVI > 100 µM | SNB-75 > 100 µM | HOP-62 > 100 µM | CCRF-CEM > 100 µM | SK-OV-3 > 100 µM | HOP-92 > 100 µM | UACC-62 > 100 µM | SK-MEL-5 68.5 µM | MDA-MB-435 > 100 µM | Malme-3M > 100 µM | COLO 205 > 100 µM

COc1ccc(C2CC(C)=Nc3c(O)nc(S)nc3N2)cc1 (centres undefined)
inactive: K562 16.6 µM | HL-60 17.7 µM | UACC-257 16.8 µM | KM12 17.4 µM | SF-268 37.7 µM | LOX IMVI 17.4 µM | SNB-75 17.6 µM | HOP-62 25.4 µM | CCRF-CEM 24.2 µM | SK-OV-3 18.1 µM | HOP-92 > 100 µM | UACC-62 17.4 µM | RPMI-8226 22.3 µM | SK-MEL-5 16.7 µM | NCI-H23 30.5 µM | Malme-3M > 100 µM | COLO 205 18.6 µM

CN(C)CCN(C)CC1COC(C)(C)O1 (centres undefined)
inactive: K562 > 100 µM | HL-60 > 100 µM | UACC-257 > 100 µM | KM12 > 100 µM | SF-268 > 100 µM | LOX IMVI > 100 µM | SNB-75 > 100 µM | HOP-62 > 100 µM | CCRF-CEM > 100 µM | SK-OV-3 > 100 µM | HOP-92 > 100 µM | UACC-62 > 100 µM | RPMI-8226 > 100 µM | SK-MEL-5 > 100 µM | NCI-H23 > 100 µM | Malme-3M > 100 µM | COLO 205 > 100 µM

Cc1cccc(/C=N/C23CC4CC(CC(C4)C2)C3)c1
inactive: K562 > 100 µM | HL-60 > 100 µM | UACC-257 > 100 µM | KM12 > 100 µM | SF-268 > 100 µM | LOX IMVI > 100 µM | SNB-75 > 100 µM | HOP-62 > 100 µM | CCRF-CEM > 100 µM | SK-OV-3 > 100 µM | HOP-92 > 100 µM | UACC-62 > 100 µM | RPMI-8226 > 100 µM | SK-MEL-5 > 100 µM | NCI-H23 > 100 µM | Malme-3M > 100 µM | COLO 205 > 100 µM

COc1ccc(/C=C/c2cc(OC)c(O[Si](C)(C)C(C)(C)C)c(OC)c2)cc1
inactive: K562 41.9 µM | UACC-257 28.4 µM | KM12 > 100 µM | SF-268 > 100 µM | SNB-75 84.7 µM | HOP-62 > 100 µM | CCRF-CEM 58.7 µM | SK-OV-3 > 100 µM | HOP-92 29.9 µM | UACC-62 75.2 µM | RPMI-8226 45 µM | SK-MEL-5 54.1 µM | NCI-H23 17.2 µM | Malme-3M 24.2 µM | COLO 205 > 100 µM

COc1cc(Br)c(CC2NCCc3cc(OC)c(OC)cc32)cc1OC (centres undefined)
inactive: K562 32.8 µM | HL-60 28.4 µM | UACC-257 40.2 µM | KM12 73.6 µM | SF-268 > 100 µM | SNB-75 70.3 µM | HOP-62 > 100 µM | CCRF-CEM > 100 µM | SK-OV-3 > 100 µM | HOP-92 16.5 µM | UACC-62 77.4 µM | RPMI-8226 18.8 µM | NCI-H23 20.9 µM | Malme-3M 58.5 µM | COLO 205 32.7 µM
